Test results: PubChem BioAssay (NCI)
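Each compound was tested at five concentrations against cells in 96-well plates for 48 hours. At the TGI there is no net growth.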

Experiments:
Test in all cases: growth of human tumour cells (NCI), 48 h
SNB-19 CNS = system: SNB-19 CNS
NCI-H23 lung = system: NCI-H23 lung
HCT-116 colon = system: HCT-116 colon
SF-295 CNS = system: SF-295 CNS
ACHN renal = system: ACHN renal
OVCAR-4 ovarian = system: OVCAR-4 ovarian
MDA-N = system: MDA-N
LOX IMVI melanoma = system: LOX IMVI melanoma
OVCAR-8 ovarian = system: OVCAR-8 ovarian
NCI-H226 lung = system: NCI-H226 lung
SW-620 colon = system: SW-620 colon
DU-145 prostate = system: DU-145 prostate
A498 renal = system: A498 renal
SK-MEL-2 melanoma = system: SK-MEL-2 melanoma
SK-MEL-5 melanoma = system: SK-MEL-5 melanoma
SF-539 CNS = system: SF-539 CNS
CAKI-1 renal = system: CAKI-1 renal
HOP-92 NSCLC = system: HOP-92 NSCLC
COLO 205 colon = system: COLO 205 colon
PC-3 prostate = system: PC-3 prostate

Row | SMILES | TGI (SNB-19 CNS) [µM] | TGI (NCI-H23 lung) [µM] | TGI (HCT-116 colon) [µM] | TGI (SF-295 CNS) [µM] | TGI (ACHN renal) [µM] | TGI (OVCAR-4 ovarian) [µM] | TGI (MDA-N) [µM] | TGI (LOX IMVI melanoma) [µM] | TGI (OVCAR-8 ovarian) [µM] | TGI (NCI-H226 lung) [µM] | TGI (SW-620 colon) [µM] | TGI (DU-145 prostate) [µM] | TGI (A498 renal) [µM] | TGI (SK-MEL-2 melanoma) [µM] | TGI (SK-MEL-5 melanoma) [µM] | TGI (SF-539 CNS) [µM] | TGI (CAKI-1 renal) [µM] | TGI (HOP-92 NSCLC) [µM] | TGI (COLO 205 colon) [µM] | TGI (PC-3 prostate) [µM]
1 | CC(=O)OCC1OC(N2C(c3ccccc3)=CC(c3ccccc3)C(C#N)=C2S)C(OC(C)=O)C(OC(C)=O)C1OC(C)=O (stereo not given) | 26.5 | 40.5 | > 65.6 | 10.1 | 27 | > 31.6 | 15.1 | > 42.5 | 24.2 | > 100 | > 100 | > 100 | 44.2 | 16.8 | 9.98 | 16.2 | 7.73 | 16.6 | – | –
2 | COc1ccc(-c2c(C(C)=O)c(-c3ccccc3)n(C3OC(COC(C)=O)C(OC(C)=O)C(OC(C)=O)C3OC(C)=O)c(=S)c2C#N)cc1 (stereo not given) | > 100 | > 100 | > 100 | > 100 | > 100 | > 100 | > 100 | > 100 | > 100 | > 100 | > 100 | > 100 | > 100 | – | > 100 | > 100 | > 100 | 71.7 | > 100 | –
3 | CN(C)/N=C(\CCN1CCCC1)CC(c1ccccc1)c1c(O)c2ccccc2oc1=O (stereo not given) | > 100 | > 100 | > 100 | > 100 | > 100 | > 100 | – | > 100 | – | > 100 | > 100 | – | – | > 100 | – | > 100 | > 100 | > 100 | > 100 | –
4 | COC(=O)CCC(=O)NC1c2cccc3cccc(c23)Cn2c(=O)n(C)c(=O)n21 (stereo not given) | > 100 | > 100 | > 100 | > 100 | > 100 | > 100 | – | > 100 | > 100 | – | > 100 | > 100 | – | > 100 | > 100 | > 100 | > 100 | > 100 | > 100 | > 100
5 | Cc1nnc([C@@]2(C)CC[C@H]3[C@@H](CC=C4C[C@@H](O)CC[C@@]43C)[C@@H]2CC#N)o1 | > 100 | > 100 | > 100 | > 100 | > 100 | > 100 | > 100 | > 100 | > 100 | > 100 | > 100 | – | > 100 | > 100 | > 100 | > 100 | > 100 | > 100 | > 100 | > 100
6 | Cc1oc2nc(N(C)C)nc(Cl)c2c1C | > 100 | > 100 | > 100 | > 100 | > 100 | > 100 | – | – | > 100 | > 100 | > 100 | > 100 | > 100 | > 100 | > 100 | > 100 | > 100 | > 100 | > 100 | > 100
7 | COc1cc2c(c(OC)c1OC)-c1ccc(SC)c(=O)cc1C(CC(=O)Oc1ccc([N+](=O)[O-])cc1)C2 (stereo not given) | > 31.8 | 1.88 | 1.82 | > 45.6 | > 40.5 | > 43.6 | – | 20.2 | 5.08 | 0.865 | > 48.7 | – | 0.571 | > 48.8 | 13.9 | 0.636 | > 62.8 | > 48.3 | 1.09 | –
8 | CCOC(=O)CC(NC(=O)c1nc[nH]c1[N+](=O)[O-])C(=O)OCC (stereo not given) | > 100 | 49.8 | > 100 | > 100 | > 100 | > 100 | – | > 100 | > 100 | 72.5 | > 100 | – | > 100 | > 100 | > 100 | > 100 | > 100 | – | > 100 | –
9 | N#CCCN(CCC#N)c1ccc(C(=O)NN)cc1 | > 100 | > 100 | > 100 | > 100 | > 100 | > 100 | – | > 100 | > 100 | > 100 | > 100 | – | > 100 | – | > 100 | > 100 | > 100 | > 100 | > 100 | –
10 | CC(=O)OC1CC2OC(Cc3ccccc32)O1 (stereo not given) | > 100 | > 100 | > 100 | > 100 | > 100 | – | – | > 100 | > 100 | > 100 | > 100 | – | – | > 100 | – | 81.6 | – | > 100 | > 100 | –
11 | CCN(CC)Cc1cc(Nc2ccnc3ccc4c(nnn4C)c23)ccc1O | 21.3 | 25.6 | 18.2 | 25.9 | 8.38 | 32.6 | 27 | 29.9 | 41.9 | – | – | 31.4 | – | 31.8 | 29.9 | 18.4 | 33.3 | – | 32.4 | 20.8
12 | C=CCN1C(=O)/C(=C/c2ccccc2)NC1=S | > 100 | > 100 | > 100 | > 100 | > 100 | > 100 | – | > 100 | > 100 | > 100 | > 100 | > 100 | > 100 | > 100 | > 100 | > 100 | > 100 | > 100 | > 100 | > 100
13 | O=C(c1ccccc1)c1c2ccccn2c2cccc[n+]12 | – | – | > 100 | > 100 | – | > 100 | – | > 100 | > 100 | > 100 | > 100 | > 100 | > 100 | > 100 | > 100 | > 100 | > 100 | > 100 | > 100 | > 100
14 | O=P(c1ccccc1)(c1ccccc1)C(NCc1ccccc1)c1ccc(F)cc1 (stereo not given) | 33.5 | 31.3 | 25.7 | 29.4 | 27.5 | 92.6 | 33.1 | 28 | 40.6 | 40.4 | 35.5 | 45.2 | 32 | 29 | 29.6 | 36.2 | 38 | 26.6 | 29.7 | –
15 | O=C(c1ccc(Cl)cc1Cl)N(C(=O)N1CCCCC1)c1ccccc1 | > 100 | > 100 | > 100 | > 100 | > 100 | – | > 100 | > 100 | > 100 | > 100 | > 100 | > 100 | > 100 | > 100 | > 100 | > 100 | > 100 | – | > 100 | > 100
16 | Nc1nc(Cl)cc(NCC2(CO)COC2)n1 | – | > 100 | > 100 | > 100 | > 100 | > 100 | > 100 | > 100 | > 100 | > 100 | > 100 | > 100 | > 100 | > 100 | > 100 | > 100 | > 100 | – | > 100 | > 100
17 | O=C1NNC(=O)C2C3c4ccccc4C(c4ccccc43)C12 (stereo not given) | > 100 | > 100 | > 100 | > 100 | > 100 | > 100 | > 100 | > 100 | > 100 | > 100 | > 100 | > 100 | > 100 | – | > 100 | > 100 | > 100 | – | > 100 | > 100
18 | CC1=CC(=O)NP(=O)(Oc2ccc(C)cc2)N1 (stereo not given) | > 100 | > 100 | > 100 | > 100 | > 100 | > 100 | – | > 100 | > 100 | > 100 | > 100 | – | > 100 | > 100 | > 100 | > 100 | > 100 | > 100 | > 100 | –
19 | O=C(CC(=O)n1nc(-c2ccccc2)c(N=Nc2ccc(Cl)cc2)c1-c1ccccc1)Nc1cccc(Cl)c1 | > 100 | > 100 | > 100 | – | > 100 | – | > 100 | – | > 100 | > 100 | > 100 | – | > 100 | > 100 | > 100 | – | – | > 100 | > 100 | > 100
20 | O=C(CSc1nnc(Cc2ccccc2)o1)Nc1cccc([N+](=O)[O-])c1 | – | > 100 | > 100 | > 100 | > 100 | > 100 | – | > 100 | > 100 | > 100 | – | – | – | > 100 | > 100 | > 100 | – | – | > 100 | –
21 | COc1cc(C2c3cc4c(cc3[C@@H](Nc3ccccc3)C3CO[C@@H](OC)[C@H]23)OCO4)cc(OC)c1O (stereo not given in full) | > 25 | – | > 25 | 12.4 | 10.6 | > 25 | – | – | > 25 | – | > 25 | – | – | – | > 25 | 12.1 | – | – | > 25 | > 25
22 | O=C1CCC(c2ccccc2)C(O)(C(=O)O)C1 (stereo not given) | > 100 | > 100 | > 100 | > 100 | > 100 | > 100 | – | > 100 | > 100 | > 100 | > 100 | – | > 100 | > 100 | > 100 | > 100 | > 100 | > 100 | > 100 | –
23 | CC1=CC(=O)NCCN1C | > 100 | > 100 | > 100 | > 100 | > 100 | > 100 | – | > 100 | > 100 | > 100 | > 100 | – | > 100 | > 100 | > 100 | > 100 | > 100 | > 100 | > 100 | –
24 | Cc1cc(=O)[nH]c(NNC(C#N)c2ccc(O)cc2)n1 (stereo not given) | – | > 100 | > 100 | > 100 | > 100 | > 100 | – | > 100 | > 100 | > 100 | > 100 | – | – | > 100 | > 100 | > 100 | > 100 | > 100 | > 100 | –
25 | CCOC(=O)c1c(SC(=O)/C=C/c2ccccc2)n(-c2ccccc2)c(=S)n(-c2ccccc2)c1=O | > 100 | > 100 | > 100 | > 100 | > 100 | > 100 | – | > 100 | > 100 | > 100 | > 100 | > 100 | > 100 | – | – | > 100 | > 100 | > 100 | > 100 | > 100
26 | CCCCCCCCCCCCCCCCCc1cccc(OCOCCOC)c1CO | > 100 | > 100 | > 100 | > 100 | > 100 | > 100 | – | – | > 100 | > 100 | > 100 | – | > 100 | > 100 | > 100 | > 100 | > 100 | > 100 | > 100 | > 100
27 | CC1=C2C3=C(C)C(=O)C(C)(C)CC[C@@]3(C)[C@]2(C)CCC(C)(C)C1=O | > 100 | > 100 | > 100 | > 100 | > 100 | > 100 | > 100 | > 100 | > 100 | > 100 | > 100 | > 100 | > 100 | – | > 100 | > 100 | > 100 | – | > 100 | > 100
